Results published in patent publication US11401270B2, “Alcoxyamino derivatives for treating pain and pain related conditions” (ESTEVE PHARMACEUTICALS, S.A., priority 2017, dated 2022).
Where two headings read alike, the source gives them in different places.

What was measured:
[1] = molecular target: Human α2δ-1 subunit of Cav2.2 calcium channel (Homo sapiens (Human), UniProt P54289); test: Binding Assay to Human α2δ-1 Subunit of Cav2.2 Calcium Channel; settings: human α2δ-1 enriched membranes, 15 nM [3H]-Gabapentin, read-out: Ki(nM) alpha2delta Hum
Summary of the method: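 Radioligand filtration binding at the α2δ-1 subunit, test compound at five concentrations; nonspecific binding defined with 10 μM pregabalin. Incubated 60 min at 27 °C, stopped by GF/C filtration (0.5% PEI presoaked) with ice-cold 50 mM Tris-HCl pH 7.4 washes; bound radioactivity counted by scintillation.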

[2] = molecular target: Human norepinephrine transporter (NET) (Homo sapiens (Human), UniProt P23975); test: Binding Assay to Human Norepinephrine Transporter (NET); settings: Table 2, dual compounds; human NET enriched membranes, 5 nM [3H]-Nisoxetin; read-out: Ki(nM) NET Hum
Procedure: Binding Assay to Human Norepinephrine Transporter (NET).
Human norepinephrine transporter (NET) enriched membranes (5 μg) were incubated with 5 nM of radiolabeled [3H]-Nisoxetin in assay buffer containing 50 mM Tris-HCl, 120 mM NaCl, 5 mM KCl, pH 7.4.
NSB (non specific binding) was measured by adding 10 μM desipramine. The binding of the test compound was measured in five different concentrations. After 60 min incubation at 4° C., binding reaction was terminated by filtering through Multiscreen GF/C (Millipore) presoaked in 0.5% polyethyleneimine in Vacuum Manifold Station, followed by 3 washes with ice-cold filtration buffer containing 50 mM Tris-HCl, 0.9% NaCl, pH 7.4.
Filter plates were dried at 60° C. for 1 hour and 30 μl of scintillation cocktail were added to each well before radioactivity reading.

Chain of Human α2δ-1 subunit of Cav2.2 calcium channel (P54289 25-1103): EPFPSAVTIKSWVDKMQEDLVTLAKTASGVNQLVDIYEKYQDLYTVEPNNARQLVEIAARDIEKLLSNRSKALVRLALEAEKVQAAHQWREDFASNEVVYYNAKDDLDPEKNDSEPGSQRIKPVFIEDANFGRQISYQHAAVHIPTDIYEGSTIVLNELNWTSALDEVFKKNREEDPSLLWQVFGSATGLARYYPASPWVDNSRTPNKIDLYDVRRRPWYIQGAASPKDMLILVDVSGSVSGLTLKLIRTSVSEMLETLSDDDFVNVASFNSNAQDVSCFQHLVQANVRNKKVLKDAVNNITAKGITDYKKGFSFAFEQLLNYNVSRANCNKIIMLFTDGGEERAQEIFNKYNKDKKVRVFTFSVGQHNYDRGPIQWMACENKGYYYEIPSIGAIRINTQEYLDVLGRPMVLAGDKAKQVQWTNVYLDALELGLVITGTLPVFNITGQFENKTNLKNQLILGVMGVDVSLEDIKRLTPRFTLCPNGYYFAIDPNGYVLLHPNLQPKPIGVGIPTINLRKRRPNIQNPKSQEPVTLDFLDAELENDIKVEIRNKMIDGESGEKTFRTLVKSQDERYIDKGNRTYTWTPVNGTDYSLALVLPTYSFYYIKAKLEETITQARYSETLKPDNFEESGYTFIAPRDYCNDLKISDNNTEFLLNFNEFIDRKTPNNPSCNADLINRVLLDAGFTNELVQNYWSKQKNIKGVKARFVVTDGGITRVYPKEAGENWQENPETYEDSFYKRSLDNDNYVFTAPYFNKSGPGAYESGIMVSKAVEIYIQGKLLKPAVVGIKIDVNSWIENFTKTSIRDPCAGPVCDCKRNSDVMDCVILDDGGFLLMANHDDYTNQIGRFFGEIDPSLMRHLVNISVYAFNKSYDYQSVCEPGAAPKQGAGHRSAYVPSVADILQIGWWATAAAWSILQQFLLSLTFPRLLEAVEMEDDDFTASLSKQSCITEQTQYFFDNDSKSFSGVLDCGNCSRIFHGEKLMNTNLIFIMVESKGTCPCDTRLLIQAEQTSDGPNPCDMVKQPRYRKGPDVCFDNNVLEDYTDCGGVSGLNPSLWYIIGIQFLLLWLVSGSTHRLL
Chain of Human norepinephrine transporter (NET) (P23975 whole entry): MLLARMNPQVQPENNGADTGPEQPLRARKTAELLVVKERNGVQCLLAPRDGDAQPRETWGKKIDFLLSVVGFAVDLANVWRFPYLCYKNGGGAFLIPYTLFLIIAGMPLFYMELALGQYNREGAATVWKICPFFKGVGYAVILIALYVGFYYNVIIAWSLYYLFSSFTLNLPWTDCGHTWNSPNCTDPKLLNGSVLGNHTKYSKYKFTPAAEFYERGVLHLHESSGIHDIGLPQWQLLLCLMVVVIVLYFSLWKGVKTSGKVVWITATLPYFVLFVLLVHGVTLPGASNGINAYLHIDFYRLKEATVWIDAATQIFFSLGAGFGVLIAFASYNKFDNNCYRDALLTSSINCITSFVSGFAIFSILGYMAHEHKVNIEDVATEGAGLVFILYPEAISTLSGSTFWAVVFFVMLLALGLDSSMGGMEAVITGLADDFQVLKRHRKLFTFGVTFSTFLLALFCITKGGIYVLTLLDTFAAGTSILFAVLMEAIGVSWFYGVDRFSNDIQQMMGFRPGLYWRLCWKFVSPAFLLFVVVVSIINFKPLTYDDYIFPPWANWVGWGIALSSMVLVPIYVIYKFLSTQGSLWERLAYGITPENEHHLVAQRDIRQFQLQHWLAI

| Ki ([1]; Table 1) | Ki ([1]; Table 2, dual compounds) | Ki [2] | Compound |
| --- | --- | --- | --- |
| < 100 nM | < 100 nM | < 100 nM | CNCC[C@H](Oc1ccc(CN2CCN(C)c3ncccc3C2=O)c(Cl)c1)c1cccs1 [Example 126, (S)-4-(2-chloro-4-(3-(methylamino)-1-(thiophen-2-yl)propoxy)benzyl)-1-methyl-1,2,3,4-tetrahydro-5H-pyrido[2,3-e][1,4]diazepin-5-one] |
| 500 to 3000 nM | 500 to 3000 nM | 100 to 500 nM | CNCCC(OCc1cccc(N2CCN(C)CCC2=O)c1)c1ccccc1 (stereo not drawn) [Example 34, 1-Methyl-4-(3-((3-(methylamino)-1-phenylpropoxy)methyl)phenyl)-1,4-diazepan-5-one] |
| < 100 nM | < 100 nM | < 100 nM | CNCC[C@H](Oc1ccc(CN2CCN(C)c3cnc(OC)cc3C2=O)c(F)c1)c1ccccc1 [Example 140, (S)-4-(2-fluoro-4-(3-(methylamino)-1-phenylpropoxy)benzyl)-7-methoxy-1-methyl-1,2,3,4-tetrahydro-5H-pyrido[3,4-e][1,4]diazepin-5-one] |
| 500 to 3000 nM | 500 to 3000 nM | 100 to 500 nM | CNCCC(OCc1cccc(N2CCCN(C)CC2)c1)c1ccccc1 (stereo not drawn) [Example 6, N-methyl-3-((3-(4-methyl-1,4-diazepan-1-yl)benzyl)oxy)-3-phenylpropan-1-amine] |
| < 100 nM | < 100 nM | < 100 nM | CNCC[C@H](Oc1ccc(CN2CCCn3nc(OC)cc3C2=O)c(C)c1)c1cccs1 [Example 134, (S)-2-methoxy-5-(2-methyl-4-(3-(methylamino)-1-(thiophen-2-yl)propoxy)benzyl)-5,6,7,8-tetrahydro-4H-pyrazolo[1,5-a][1,4]diazepin-4-one] |
| 500 to 3000 nM | 500 to 3000 nM | 100 to 500 nM | CCNC[C@H]1CC(=O)N(c2cccc(O[C@@H](CCNC)c3cccs3)c2)CCN1C [Example 86, (R)-7-((ethylamino)methyl)-1-methyl-4-(3-((S)-3-(methylamino)-1-(thiophen-2-yl)propoxy)phenyl)-1,4-diazepan-5-one] |
| < 100 nM | < 100 nM | < 100 nM | CNCC[C@H](Oc1cc(F)cc(N2CCN(C)c3ncccc3C2=O)c1)c1cccs1 [Example 120, (S)-4-(3-fluoro-5-(3-(methylamino)-1-(thiophen-2-yl)propoxy)phenyl)-1-methyl-1,2,3,4-tetrahydro-5H-pyrido[2,3-e][1,4]diazepin-5-one] |
| 100 to 500 nM | 100 to 500 nM | < 100 nM | CNCC[C@H](Oc1ccc(CN2CCN(C)c3ncccc3C2=O)cc1)c1cccc(F)c1 [Example 151, (S)-4-(4-(1-(3-fluorophenyl)-3-(methylamjno)propoxy)benzyl)-1-methyl-1,2,3,4-tetrahydro-5H-pyrido[2,3-e][1,4]diazepin-5-one] |
| 500 to 3000 nM | 500 to 3000 nM | 500 to 1000 nM | CNCCC(OCc1cccc(N2CCN(C)c3ccccc3C2)c1)c1ccccc1 (stereo not drawn) [Example 7, N-methyl-3-((3-(1-methyl-1,2,3,5-tetrahydro-4H-benzo[e][1,4]diazepin-4-yl)benzyl)oxy)-3-phenylpropan-1-amine] |
| < 100 nM | < 100 nM | < 100 nM | CNCCC(Oc1ccc(CN2CCN(C)c3nc(N)ccc3C2=O)c(F)c1)c1cccc(F)c1 (stereo not drawn) [Example 131, 8-Amino-4-(2-fluoro-4-(1-(3-fluorophenyl)-3-(methylamino)propoxy)benzyl)-1-methyl-1,2,3,4-tetrahydro-5H-pyrido[2,3-e][1,4]diazepin-5-one] |
| < 100 nM | < 100 nM | < 100 nM | CNCCC(Oc1ccc(CN2CCN(C)c3ncccc3C2=O)c(F)c1)c1cccc(F)c1 (stereo not drawn) [Example 123, 4-(2-Fluoro-4-(1-(3-fluorophenyl)-3-(methylamino)propoxy)benzyl)-1-methyl-1,2,3,4-telrahydro-5H-pyrido[2,3-e][1,4]diazepin-5-one] |
| 100 to 500 nM | 100 to 500 nM | 500 to 1000 nM | CNCCC(Oc1cccc(CN2CCN(C)c3ccccc3C2)c1)c1cccs1 (stereo not drawn) [Example 1, N-methyl-3-(3-((1-methyl-1,2,3,5-tetrahydro-4H-benzo[e][1,4]diazepin-4-yl)methyl)phenoxy)-3-(thiophen-2-yl)propan-1-amine] |
| 100 to 500 nM | 100 to 500 nM | 100 to 500 nM | CNCCC(Oc1cccc(N2CCN(C)c3nc(C)ccc3C2=O)c1)c1ccsc1 (stereo not drawn) [Example 78, 1,8-Dimethyl-4-(3-(3-(methylamino)-1-(thiophen-3-yl)propoxy)phenyl)-1,2.3,4-tetrahydro-5H-pyrido[2,3-e][1,4]diazepin-5-one] |
| 100 to 500 nM | 100 to 500 nM | < 100 nM | CNCC[C@H](Oc1ccc(CN2CCCn3nc(OC)cc3C2=O)c(F)c1)c1ccccc1 [Example 144, (S)-5-(2-fluoro-4-(3-(methylamino)-1-phenylpropoxy)benzyl)-2-methoxy-5,6,7,8-tetrahydro-4H-pyrazolo[1,5-a][1,4]diazepin-4-one] |
| 500 to 3000 nM | 500 to 3000 nM | 100 to 500 nM | CNCC[C@H](Oc1ccc(CN2CCN(C)c3ccccc3C2=O)cc1)c1cccs1 [Example 98, (S)-1-methyl-4-(4-(3-(methylamino)-1-(thiophen-2-yl)propoxy)benzyl)-1,2,3,4-tetrahydro-5H-benzo[e][1,4]diazepin-5-one] |
| 500 to 3000 nM | 500 to 3000 nM | < 100 nM | CCNc1ccc2c(n1)N(C)CCN(Cc1ccc(OC(CCNC)c3ccccc3)cc1)C2=O (stereo not drawn) [Example 111, 8-(Ethylamino)-1-methyl-4-(4-(3-(methylamino)-1-phenylpropoxy)benzyl)-1,2,3,4-tetrahydro-5H-pyrido[2,3-e][1,4]diazepin-5-one] |
| 100 to 500 nM | 100 to 500 nM | < 100 nM | CNCCC(Oc1ccc(CN2CCN(C)c3ncccc3C2=O)cc1)c1cccc(F)c1 (stereo not drawn) [Example 117, 4-(4-(1-(3-Fluorophenyl)-3-(methylamino)propoxy)benzyl)-1-methyl-1,2,3,4-tetrahydro-5H-pyrido[2,3-e][1,4]diazepin-5-one] |
| 100 to 500 nM | 100 to 500 nM | < 100 nM | CNCC[C@H](Oc1ccc(CN2CCN(C)c3ncc(F)cc3C2=O)c(F)c1)c1ccccc1 [Example 143, (S)-7-fluoro-4-(2-fluoro-4-(3-(methylamino)-1-phenylpropoxy)benzyl)-1-methyl-1,2,3,4-tetrahydro-5H-pyrido[2,3-e][1,4]diazepin-5-one] |
| 500 to 3000 nM | 500 to 3000 nM | 500 to 1000 nM | CNCCC(OCc1cccc(N2CCCN(C)CC2)c1)c1cccs1 (stereo not drawn) [Example 10, N-methyl-3-((3-(4-methyl-1,4-diazepan-1-yl)benzyl)oxy)-3-(thiophen-2-yl)propan-1-amine] |
| 100 to 500 nM | 100 to 500 nM | < 100 nM | CCNc1ccc2c(n1)N(C)CCN(Cc1ccc(O[C@@H](CCNC)c3cccs3)cc1)C2=O [Example 92, (S)-8-(ethylamino)-1-methyl-4-(4-(3-(methylamino)-1-(thiophen-2-yl)propoxy)benzyl)-1,2,3,4-tetrahydro-5H-pyrido[2,3-e][1,4]diazepin-5-one] |
| 100 to 500 nM | 100 to 500 nM | < 100 nM | CNCC[C@H](Oc1ccc(CN2CCCn3nc(C)cc3C2=O)c(F)c1)c1ccccc1 [Example 139, (S)-5-(2-fluoro-4-(3-(methylamino)-1-phenylpropoxy)benzyl)-2-methyl-5,6,7,8-tetrahydro-4H-pyrazolo[1,5-a][1,4]diazepin-4-one] |
| 100 to 500 nM | 100 to 500 nM | < 100 nM | CNCC[C@H](Oc1ccc(CN2CCN(C)c3nc(OC)ccc3C2=O)c(F)c1)c1ccccc1 [Example 132, (S)-4-(2-fluoro-4-(3-(methylamino)-1-phenylpropoxy)benzyl)-8-methoxy-1-methyl-1,2,3,4-tetrahydro-5H-pyrido[2,3-e][1,4]diazepin-5-one] |
| 100 to 500 nM | 100 to 500 nM | 500 to 1000 nM | CNCC[C@H](Oc1cccc(N2CCN(C)c3nc(C(F)(F)F)ccc3C2=O)c1)c1cccs1 [Example 81, (S)-1-methyl-4-(3-(3-(methylamino)-1-(thiophen-2-yl)propoxy)phenyl)-8-(trifiuoromethyl)-1.2.3,4-tetrahydro-5H-pyrido[2.3-e][1,4]diazepin-5-one] |
| < 100 nM | < 100 nM | < 100 nM | CNCCC(Oc1ccc(CN2CCN(C)c3ncccc3C2=O)cc1)c1cccs1 (stereo not drawn) [Example 99, 1-Methyl-4-(4-(3-(methylamino)-1-(thiophen-2-yl)propoxy)benzyl)-1,2,3,4-tetrahydro-5H-pyrido[2,3-e][1,4]diazepin-5-one] |
| 500 to 3000 nM | 500 to 3000 nM | < 100 nM | CNCCC(Oc1ccc(CN2CCN(C)c3ncccc3C2=O)cc1)c1ccc(F)cc1 (stereo not drawn) [Example 115, 4-(4-(1-(4-Fluorophenyl)-3-(methylamino)propoxy)benzyl)-1-methyl-1,2,3,4-tetrahydro-5H-pyrido[2,3-e][1,4]diazepin-5-one] |
